From patent publication US9926276B2, “Substituted benzamides with activity towards EP4 receptors” (DRACONIS PHARMA, S.L., priority 2013, dated 2018) come the findings set out here.

The target in experiment [1] is T1, human EP4 receptor (Homo sapiens, UniProt P35408). The experiment is described as follows: Human EP4 receptor radioligand binding assay (Test 1). Details: expressed in transfected cells; host or cells: HEK-293 cell membranes. The following applies: [3H]-PGE2 1 nM, transfected HEK-293 cell membranes; for Results of Test 1 (Binding assay, % inh): at 10 μM; for inhibition at 10 µM: read-out: Results of Test 1 (Binding assay, % inh). As to the method: Test 1: Human EP4 Receptor Radioligand Binding Assay
T1 sequence (P35408 whole entry): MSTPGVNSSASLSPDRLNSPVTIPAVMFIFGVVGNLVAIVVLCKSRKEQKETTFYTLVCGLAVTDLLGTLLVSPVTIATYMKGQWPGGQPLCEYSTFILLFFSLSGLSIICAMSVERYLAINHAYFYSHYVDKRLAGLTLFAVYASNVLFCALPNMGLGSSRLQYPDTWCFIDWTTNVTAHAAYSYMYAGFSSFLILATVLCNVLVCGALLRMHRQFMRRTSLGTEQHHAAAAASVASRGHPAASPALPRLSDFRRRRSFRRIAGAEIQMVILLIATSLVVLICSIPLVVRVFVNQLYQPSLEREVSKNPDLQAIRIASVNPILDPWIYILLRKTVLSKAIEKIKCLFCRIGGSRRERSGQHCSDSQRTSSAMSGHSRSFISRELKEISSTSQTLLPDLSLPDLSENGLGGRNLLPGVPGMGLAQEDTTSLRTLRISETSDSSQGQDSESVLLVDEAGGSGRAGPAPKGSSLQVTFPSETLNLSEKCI
To investigate binding properties of EP4 receptor ligands to human EP4 receptor, transfected HEK-293 cell membranes and [3H]-PGE2 (Perkin Elmer) were used. In 96-well plates the assay was carried out with a total reaction volume of 250 μl, containing 25 μl of membrane suspension (30 μg protein/well), 25 μl of [3H]-PGE2 (1 nM) in either absence or presence of 25 μl of either buffer or PGE2 (10 μM) for total and non-specific binding, respectively. Binding buffer contained 25 mM MES, 10 mM MgCl2 and 1 mM EDTA at pH 6.0. Plates were incubated at 25° C. for 120 minutes. After the incubation period, 200 μl of incubate were transferred to MultiScreen HTS, FB plates (Millipore), filtered and plates were washed 6 times with ice-cold 10 mM MES, 0.01% BSA at pH 6.0. Filters were dried and counted in a MicroBeta scintillation counter (Perkin-Elmer) using EcoScint liquid scintillation cocktail.
Percentage inhibition was calculated relating compounds activity to the 0% inhibition of the wells incubated with 1 nM [3H]-PGE2 alone (total binding) and 100% inhibition of the wells incubated with 1 nM [3H]-PGE2 plus 10 μM PGE2 (non-specific binding).

Experiment [2] has as its target T1, human EP4 receptor. The experiment is described as follows: Measurement of cAMP responses by Homogeneous Time Resolved Fluorescence (Test 2). In kind it is cell-based. Details: expressed in transfected cells. The following applies: for Results of Test 2 (Functional assay, antagonist % inh): at 10 μM, PGE2 1 nM, HEK-293 cells stably expressing human EP4; for inhibition at 10 µM: HEK293, PGE2 1 nM, HEK-293 cells stably expressing human EP4, read-out: Results of Test 2 (Functional assay, antagonist % inh). Here is the method: Test 2: Measurement of cAMP Responses by Homogeneous Time Resolved Fluorescence
cAMP measurements on HEK-293 cells that stably expressed human EP4 receptors were performed by using a system based on Homogeneous Time Resolved Fluorescense (HTRF). This technology allows the direct measurement of cAMP in living cells. The principle of this assay is based on competition between cAMP produced by cells and cAMP-d2 conjugate for the binding with monoclonal anti-cAMP-cryptate conjugate. The HTRF cAMP kit from CisBio was used according to the manufacturer's directions. The experimental procedure was performed as stated below.
Suspended cells (30,000 cells per well) were added to 96-well culture plates in 30 μl of Optimem supplemented with 500 μM IBMX. Compounds were then added in 10 μl of stimulation buffer and incubated at 25° C. for 30 minutes followed by 10 μl of PGE2 to a final concentration of 1 nM. After 30 minutes at 25° C., the reaction was stopped lysing the cells with a mixture of 25 μl of cryptate and 25 μl of cAMP-d2 prepared in the lysis buffer supplied by the manufacturer. Plates were incubated for an additional hour at room temperature and read at 665 nm/620 nm using an UltraEvolution Plate reader (Tecan).
Antagonist percentage inhibition was calculated relating compounds activity to the 0% inhibition of the wells incubated with 1 nM PGE2 alone and 100% inhibition of the wells incubated with 1 nM PGE2 plus 1 μM of the reference antagonist.

As for `Cc1ccc(-c2cc(Cl)ccc2F)cc1C(=O)Nc1c(C)cc(C(=O)O)cc1C` [Example 10, 4-(5′-Chloro-2′-fluoro-4-methylbiphenyl-3-ylcarboxamido)-3,5-dimethylbenzoic acid], the “Results of Test 1 (Binding assay, % inh)” value on human EP4 receptor [1] was “# (% inh >75)”. At human EP4 receptor [2], the “Results of Test 2 (Functional assay, antagonist % inh)” value is listed as “$ (% inh >75)”.

Turning to `Cc1cc(C(=O)O)cc(C)c1NC(=O)c1nc(-c2cccc(Cl)c2)ccc1Cl` [Example 23, 4-(3-Chloro-6-(3-chlorophenyl)picolinamido)-3,5-dimethylbenzoic acid], the inhibition at 10 µM at human EP4 receptor [1] and at human EP4 receptor [2] was > 75% each time.

Regarding `Cc1ccc(-c2cccc(Cl)c2)cc1C(=O)Nc1cc(C(=O)O)ccc1C(C)C` [Example 45, 3-(3′-Chloro-4-methylbiphenyl-3-ylcarboxamido)-4-isopropylbenzoic acid], the “Results of Test 1 (Binding assay, % inh)” value on human EP4 receptor [1] is given as “# (% inh >75)”. Further, the “Results of Test 2 (Functional assay, antagonist % inh)” value at human EP4 receptor [2] is listed as “$ (% inh >75)”.

Take `Cc1ccc(C(=O)O)cc1NC(=O)c1cc(-c2cccc(Cl)c2)ccc1C` [Example 38, 3-(3′-Chloro-4-methylbiphenyl-3-ylcarboxamido)-4-methylbenzoic acid]: the “Results of Test 1 (Binding assay, % inh)” value at human EP4 receptor [1] is listed as “# (% inh >75)”. Moreover, at human EP4 receptor [2], the “Results of Test 2 (Functional assay, antagonist % inh)” value is reported as “$ (% inh >75)”.

As for `Cc1cc(C(=O)O)ccc1NC(=O)c1cc(-c2cccc(Cl)c2)ccc1Cl` [Example 21, 4-(3′,4-Dichlorobiphenyl-3-ylcarboxamido)-3-methylbenzoic acid], the “Results of Test 1 (Binding assay, % inh)” value at human EP4 receptor [1] is on record as “# (% inh >75)”. The “Results of Test 2 (Functional assay, antagonist % inh)” value on human EP4 receptor [2] was “$ (% inh >75)”.

Take `Cc1ccc(-c2cccc(F)c2)cc1C(=O)Nc1c(C)cc(C(=O)O)cc1C` [Example 4, 4-(3′-Fluoro-4-methylbiphenyl-3-ylcarboxamido)-3,5-dimethylbenzoic acid]: the “Results of Test 1 (Binding assay, % inh)” value at human EP4 receptor [1] is reported as “# (% inh >75)”. Besides, the “Results of Test 2 (Functional assay, antagonist % inh)” value on human EP4 receptor [2] was “$ (% inh >75)”.

With `Cc1ccc(C(=O)O)cc1NC(=O)c1nc(-c2cccc(Cl)c2)ccc1Cl` [Example 42, 3-(3-Chloro-6-(3-chlorophenyl)picolinamido)-4-methylbenzoic acid], the inhibition at 10 µM on human EP4 receptor [1] and at human EP4 receptor [2] was > 75% in each case.

Take `Cc1ccc(-c2cccc(C#N)c2)cc1C(=O)Nc1c(Cl)cc(C(=O)O)cc1Cl` [Example 7, 3,5-Dichloro-4-(3′-cyano-4-methylbiphenyl-3-ylcarboxamido)benzoic acid]: on human EP4 receptor [1], the “Results of Test 1 (Binding assay, % inh)” value was “# (% inh >75)”. Besides, the “Results of Test 2 (Functional assay, antagonist % inh)” value at human EP4 receptor [2] was “$ (% inh >75)”.

On to `COc1cccc(-c2ccc(Cl)c(C(=O)Nc3c(Cl)cc(C(=O)O)cc3Cl)c2)c1` [Example 17, 3,5-Dichloro-4-(4-chloro-3′-methoxybiphenyl-3-ylcarboxamido)benzoic acid], for which the “Results of Test 1 (Binding assay, % inh)” value at human EP4 receptor [1] was “# (% inh >75)”. Moreover, at human EP4 receptor [2], the “Results of Test 2 (Functional assay, antagonist % inh)” value is on record as “$ (% inh >75)”.

Turning to `Cc1cc(C(=O)O)cc(C)c1NC(=O)c1cc(-c2cccc(CO)c2)ccc1Cl` [Example 2, 4-(4-Chloro-3′-(hydroxymethyl)biphenyl-3-ylcarboxamido)-3,5-dimethylbenzoic acid], at human EP4 receptor [1], the “Results of Test 1 (Binding assay, % inh)” value was “# (% inh >75)”. Besides, the “Results of Test 2 (Functional assay, antagonist % inh)” value at human EP4 receptor [2] is recorded as “$ (% inh >75)”.

Consider `Cc1cc(C(=O)O)cc(C)c1NC(=O)c1cc(OCC(C)C)ccc1Cl` [Example 24, 4-(2-Chloro-5-isobutoxybenzamido)-3,5-dimethylbenzoic acid], for which the inhibition at 10 µM at human EP4 receptor [1] and on human EP4 receptor [2] was > 75% throughout.

Take `Cc1ccc(-c2cccc(Cl)c2)cc1C(=O)Nc1c(Cl)cc(C(=O)O)cc1Cl` [Example 15, 3,5-Dichloro-4-(3′-chloro-4-methylbiphenyl-3-ylcarboxamido)benzoic acid]: on human EP4 receptor [1], the “Results of Test 1 (Binding assay, % inh)” value was “# (% inh >75)”. Further, at human EP4 receptor [2], the “Results of Test 2 (Functional assay, antagonist % inh)” value is “$ (% inh >75)”.

Consider `COc1cccc(-c2ccc(Cl)c(C(=O)Nc3c(C)cc(C(=O)O)cc3C)c2)c1` [Example 1, 4-(4-Chloro-3′-methoxybiphenyl-3-ylcarboxamido)-3,5-dimethylbenzoic acid], for which, on human EP4 receptor [1], the “Results of Test 1 (Binding assay, % inh)” value is reported as “# (% inh >75)”. Also, the “Results of Test 2 (Functional assay, antagonist % inh)” value on human EP4 receptor [2] was “$ (% inh >75)”.

Consider `Cc1cc(C(=O)O)cc(Cl)c1NC(=O)c1nc(-c2cccc(Cl)c2)ccc1Cl` [Example 48, 3-Chloro-4-(3-chloro-6-(3-chlorophenyl)-picolinamido)-5-methylbenzoic acid], for which the inhibition at 10 µM at human EP4 receptor [1] and on human EP4 receptor [2] was > 75% in each case.

In the case of `CC(C)c1ccc(C(=O)O)cc1NC(=O)c1cc(-c2cccc(Cl)c2)ccc1Cl` [Example 46, 3-(3′,4-Dichlorobiphenyl-3-ylcarboxamido)-4-isopropylbenzoic acid], the “Results of Test 1 (Binding assay, % inh)” value on human EP4 receptor [1] was “# (% inh >75)”. Besides, on human EP4 receptor [2], the “Results of Test 2 (Functional assay, antagonist % inh)” value was “$ (% inh >75)”.

`Cc1ccc(-c2cccc(C(F)(F)F)c2)cc1C(=O)Nc1c(C)cc(C(=O)[O-])cc1C.[Na+]` [Example 58, Sodium 3,5-dimethyl-4-(4-methyl-3′-(trifluoromethyl)biphenyl-3-ylcarboxamido)benzoate]: on human EP4 receptor [1], the “Results of Test 1 (Binding assay, % inh)” value is “# (% inh >75)”. On human EP4 receptor [2], the “Results of Test 2 (Functional assay, antagonist % inh)” value is “$ (% inh >75)”.

For the compound `CC(C)COc1ccc(Cl)c(C(=O)Nc2c(Cl)cc(C(=O)O)cc2Cl)c1` [Example 25, 3,5-Dichloro-4-(2-chloro-5-isobutoxybenzamido)benzoic acid], the inhibition at 10 µM at human EP4 receptor [1] and at human EP4 receptor [2] was > 75% throughout.

Take `Cc1ccc(-c2cccc(CO)c2)cc1C(=O)Nc1c(Cl)cc(C(=O)O)cc1Cl` [Example 6, 3,5-Dichloro-4-(3′-(hydroxymethyl)-4-methylbiphenyl-3-ylcarboxamido)benzoic acid]: on human EP4 receptor [1], the “Results of Test 1 (Binding assay, % inh)” value is reported as “# (% inh >75)”. Besides, the “Results of Test 2 (Functional assay, antagonist % inh)” value at human EP4 receptor [2] was “$ (% inh >75)”.

In the case of `Cc1cc(C(=O)O)cc(C)c1NC(=O)c1cc(-c2cccc(Cl)c2)ccc1Cl` [Example 14, 4-(3′,4-Dichlorobiphenyl-3-ylcarboxamido)-3,5-dimethylbenzoic acid], the “Results of Test 1 (Binding assay, % inh)” value on human EP4 receptor [1] is “# (% inh >75)”. In addition, the “Results of Test 2 (Functional assay, antagonist % inh)” value on human EP4 receptor [2] is reported as “$ (% inh >75)”.

On to `O=C(O)c1cc(Cl)c(NC(=O)c2cc(-c3cccc(Cl)c3)ccc2Cl)c(Cl)c1` [Example 19, 3,5-Dichloro-4-(3′,4-dichlorobiphenyl-3-ylcarboxamido)benzoic acid], for which, on human EP4 receptor [1], the “Results of Test 1 (Binding assay, % inh)” value is reported as “# (% inh >75)”. Besides, on human EP4 receptor [2], the “Results of Test 2 (Functional assay, antagonist % inh)” value was “$ (% inh >75)”.

`O=C(O)c1cc(Cl)c(NC(=O)c2cc(-c3nccc(C(F)(F)F)n3)ccc2Cl)c(Cl)c1` [Example 60, Sodium 3,5-dichloro-4-(2-chloro-5-(4-(trifluoromethyl)pyrimidin-2-yl)benzamido)benzoate]: the inhibition at 10 µM on human EP4 receptor [1] and at human EP4 receptor [2] was > 75% in each case.

Take `COc1cccc(-c2ccc(C)c(C(=O)Nc3c(Cl)cc(C(=O)O)cc3Cl)c2)c1` [Example 8, 3,5-Dichloro-4-(3′-methoxy-4-methylbiphenyl-3-ylcarboxamido)benzoic acid]: at human EP4 receptor [1], the “Results of Test 1 (Binding assay, % inh)” value is recorded as “# (% inh >75)”. Also, the “Results of Test 2 (Functional assay, antagonist % inh)” value at human EP4 receptor [2] was “$ (% inh >75)”.

As for `O=C(O)c1cc(Cl)c(NC(=O)c2nc(N3CCCCC3)ccc2Cl)c(Cl)c1` [Example 57, 3,5-Dichloro-4-(3-chloro-6-(piperidin-1-yl)picolinamido)benzoic acid], the inhibition at 10 µM at human EP4 receptor [1] and at human EP4 receptor [2] was > 75% in each case.

Take `COc1ccc(F)c(-c2ccc(C)c(C(=O)Nc3c(C)cc(C(=O)O)cc3C)c2)c1` [Example 12, 4-(2′-fluoro-5′-methoxy-4-methylbiphenyl-3-ylcarboxamido)-3,5-dimethylbenzoic acid]: the “Results of Test 1 (Binding assay, % inh)” value at human EP4 receptor [1] was “# (% inh >75)”. For the same compound, at human EP4 receptor [2], the “Results of Test 2 (Functional assay, antagonist % inh)” value is “$ (% inh >75)”.
